Source: article PMC7179274, “6′-β-Fluoro-Homoaristeromycin and 6′-Fluoro-Homoneplanocin A Are Potent Inhibitors of Chikungunya Virus Replication through Their Direct Effect on Viral Nonstructural Protein 1” (Antimicrobial Agents and Chemotherapy, 2020)
Positions count from the first letter of the chain named. Entries after “also recorded” stand apart in the source; their conditions may differ. Like-named read-outs stand apart in the source and are kept apart here.

Columns and labels:
SFV [1] = experiment: CPE reduction assay, SFV
[2] = test system: FHNA-resistant CHIKV variants; assay type: cell-based; details: for Fold resistance: EC50 variant/EC50 wt; for EC50: read-out: Mean EC50 ± SD
CHIKV [3] = experiment: Time-of-drug-addition assay, CHIKV; details: 10 μM, pretreated or treated early (−12 to 4 h)
[4] = test system: rCHIKV G230R+K299E and rCHIKV G230R+K299E+*524R; assay type: cell-based, Chikungunya virus; details: 10 μM, both mutant viruses, MOI 1
SINV = experiment: CPE reduction assay, SINV; details: VeroE6 cells, MOI 0.025
CHIKV [5] = experiment: Viral load reduction (single-cycle dose response) assay, CHIKV
[6] = target: host enzyme SAH hydrolase; parameters: method as in PMID 26010585; details: in vitro; read-out: 50% inhibitory concentration, SAH hydrolase; cited from earlier work
SFV [7] = experiment: Viral load reduction (single-cycle dose response) assay, SFV; assay type: cell-based, Semliki Forest virus; details: 12.5 μM, VeroE6, MOI 5, 8 hpi, plaque assay
SFV nsP1 K231R+K300E = target: T1, SFV nsP1 K231R+K300E (Semliki forest virus, UniProt P08411, K231R/K300E); assay type: biochemical
T1 sequence (P08411 1-537 K231R/K300E): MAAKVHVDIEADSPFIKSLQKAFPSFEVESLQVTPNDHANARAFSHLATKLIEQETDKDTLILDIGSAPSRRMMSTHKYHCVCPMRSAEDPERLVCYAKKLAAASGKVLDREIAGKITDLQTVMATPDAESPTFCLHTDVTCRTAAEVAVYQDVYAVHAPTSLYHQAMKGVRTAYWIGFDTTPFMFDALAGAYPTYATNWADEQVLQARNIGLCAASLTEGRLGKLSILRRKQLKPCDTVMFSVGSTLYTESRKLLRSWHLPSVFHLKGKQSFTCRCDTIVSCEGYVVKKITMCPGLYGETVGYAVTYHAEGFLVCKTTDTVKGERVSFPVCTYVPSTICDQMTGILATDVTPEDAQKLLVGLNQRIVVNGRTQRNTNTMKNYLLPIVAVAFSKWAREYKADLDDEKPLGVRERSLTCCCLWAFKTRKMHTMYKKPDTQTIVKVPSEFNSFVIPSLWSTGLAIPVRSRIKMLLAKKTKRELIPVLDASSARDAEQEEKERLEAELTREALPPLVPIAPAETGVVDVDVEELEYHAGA

wt SFV nsP1 = target: T2, wt SFV nsP1 (Semliki forest virus, UniProt P08411); experiment: nsP1 enzymatic activity assay (m7GMP-nsP1 intermediate formation), wt; details: for Inhibition of wt SFV nsP1: 10 μM SAM
T2 sequence (P08411 1-537): T1 sequence (P08411 1-537 K231R/K300E) with R231K, E300K

CHIKV [8] = experiment: CPE reduction assay, CHIKV
VeroE6 cells = experiment: Cytotoxicity in uninfected cells (MTS/PMS) of the CPE reduction assay
[9] = 1 mM compound + 1 mM NAD+, absence of DTT
[10] = 1 mM, nonreducing conditions (absence of DTT)

Nc1ncnc2c1ncn2C1C(F)=C(CCO)C(O)C1O (stereo not drawn) [FHNA, 6′-fluoro-homoneplanocin A]
SI (SFV) (SFV [1]; CC50/EC50): >48 | EC50 (SFV [1]; read-out: EC50 (SFV), VeroE6 cells, MOI 0.025, MTS at 40 hpi, mean ± SD): 5.2 ± 3.2 µM | Fold resistance ([2]; CHIKV wt): 1 | EC50 ([2]; CHIKV wt, VeroE6, MOI 0.05): 0.14 ± 0.01 µM | Fold resistance ([2]; variant 1a): 100 | EC50 ([2]; variant 1a): 14.1 ± 0.01 µM | Fold resistance ([2]; variant 1b): 24 | EC50 ([2]; variant 1b): 3.4 ± 0.6 µM | Fold resistance ([2]; variant 2a): 12 | EC50 ([2]; variant 2a): 1.7 ± 0.7 µM | Fold resistance ([2]; variant 2b): 21 | EC50 ([2]; variant 2b): 3 ± 0.6 µM | Fold resistance ([2]; variant 3): 9 | EC50 ([2]; variant 3): 1.3 ± 0.8 µM | Fold resistance ([2]; variant 4): 27 | EC50 ([2]; variant 4): 3.8 ± 0.3 µM | Fold resistance ([2]; variant 5): 13 | EC50 ([2]; variant 5): 1.8 ± 0.8 µM | CHIKV specific infectivity (genome copies vs infectious virus yield) (CHIKV [3]): decrease in specific infectivity; also recorded: reduction in CHIKV-specific infectivity | Infectious progeny titers lower than untreated controls ([4]; 12 hpi): at least 1.5 log10 | Infectious progeny titers lower than untreated controls ([4]; 24 hpi): ≥ 1.2 log10 | Protection against SINV infection (SINV): did not confer protection; also recorded: not sensitive | Reduction of CHIKV infectious progeny titers vs infected untreated cells (CHIKV [5]; 5 μM, VeroE6, MOI 1, 20 hpi, plaque assay): 2.5 log10 | Levels of genomic, subgenomic and negative-strand CHIKV RNA (CHIKV [5]; 0.1 to 10 μM, 8 hpi, in-gel hybridization): reduced in a dose-dependent manner | IC50 [6]: 0.91 µM | Reduction of SFV infectious progeny (SFV [7]): > 1 log10 | Response of mutant vs wt SFV nsP1 to treatment (SFV nsP1 K231R+K300E; 50 μM to 1 mM, standard conditions): no difference between wt and mutant SFV nsP1 proteins | Further reduction in signal in the presence of NAD+ (SFV nsP1 K231R+K300E; [9]): about 6% | Reduction of the signal (SFV nsP1 K231R+K300E; 1 mM compound + 1 mM NAD+, nonreducing conditions): 25% | Reduction in signal (SFV nsP1 K231R+K300E; [10]): about 20% | Effect on formation of m7GMP-nsP1 intermediate (wt SFV nsP1; 50 μM to 1 mM, 100 μM SAM, 5 mM DTT): did not observe any inhibitory effect | Inhibition of wt SFV nsP1 (wt SFV nsP1; [9]): more than 50% | Effect on formation of m7GMP-nsP1 intermediate at low SAM (wt SFV nsP1; 1 mM compound, 5 or 10 μM SAM): no direct inhibitory effect | Inhibition of wt SFV nsP1 (wt SFV nsP1; [10]): more than 40% | SI (CHIKV) (CHIKV [8]; CC50/EC50): >1,000 | EC50 (CHIKV [8]; read-out: EC50 (CHIKV), VeroE6 cells, MOI 0.005, MTS at 96 hpi, mean ± SD): 0.18 ± 0.11 µM | CC50 (VeroE6 cells; read-out: CC50 (CHIKV assay), CHIKV assay format): > 250 µM | CC50 (VeroE6 cells; read-out: CC50 (SFV assay), SFV assay format): > 250 µM | CC50 (VeroE6 cells; read-out: CC50 (SINV assay), SINV assay format): > 250 µM
